Numbered stars: 1 amine (or outer) side, 2 acyl side, 3 side chain; on linkers, the order of the positions; unused ones are H or OH. Square brackets hold non-standard residues; d marks the D form. Peptide text beside a SMILES is read from it. * marks the point of attachment. X1 = O=C1NC2CSC(CCCCC(=O)*)C2N1; X2 = CC(O)CC(N[*:1])C(=O)[*:2]; Abu = CC[CH](N)C(=O)O
Columns and labels:
[1] = Blood-brain barrier penetration experiment: biotin in cerebrospinal fluid; format: in vivo, mouse; settings: mice, biotin detected in cerebrospinal fluid
Procedure: The biotin-labeled novel EPO-derived peptide was injected intraperitoneally. 5-15 μl of mouse cerebrospinal fluid was taken under general anesthesia 1 h after administration. The biotin assay kit was used to detect whether the biotin-labeled novel EPO-derived peptide entered the cerebrospinal fluid across the blood-brain barrier.
1. Anesthetizing the mouse with 4% chloral hydrate;
2. Wiping the nape of the neck with wet gauze, and cutting off the dorsal set to expose the skin; making a sagittal incision in the skin below the occipital bone, and separating the skin from both sides to expand the visual field;
3. Letting the mouse prone, placing the body at an angle of 135° to the head and fixing the head on the stereotactic instrument; bluntly separating the subcutaneous tissue and muscle along the midline under the stereo microscope; at this angle, the dura mater and spinal cord can be clearly seen in the incision below the occipital bone (The main features are a clear white appearance, a cyclical pulsation of the spinal cord blood vessels and an adjacent cerebrospinal fluid area);
4. Setting the heat value as 300 and the pressure value as 330 in the needle puller, pulling the capillary glass tube into a pointed capillary tube, and trimming the tip of the pointed capillary tube with scissors to make the blunt tip have a diameter of 0.5 mm;
5. […]

[2] = test system: pilocarpine-induced seizures; test: Pilocarpine-induced epilepsy model: seizure latency; format: in vivo, C57/BL6 mice; settings: for seizure latency / seizure latency versus saline and solvent groups: EPO 50 μg/kg; for seizure latency: T3 500 μg/kg i.p. 1 day, 4 h, 2 h before pilocarpine 350 mg/kg; for seizure latency versus saline and solvent groups: T3 500 μg/kg, difference statistically significant
Procedure: C57/BL6 mice (male, 20-25 g, 24 mice, purchased from Shanghai JieSiJie Laboratory Animal Co., Ltd) were divided into physiological saline group (Saline, 0.2 ml/mouse), solvent group (ACN+Milliq, 0.2 ml/mouse), EPO group (50 μg/kg), novel EPO-derived peptide group (T3, 500 μg/kg), 6 mice each group. The drugs were administered 1 day, 4 h, and 2 h before pilocarpine-induced epilepsy, and the seizure latency and severity of seizures were recorded.
1. Intraperitoneally administering the mice 1 day, 4 h, 2 h prior to the injection of pilocarpine;
2. Intraperitoneally injecting scopolamine (1 mg/kg) 30 min in advance to reduce the peripheral cholinergic response induced by pilocarpine;
3. Intraperitoneally injecting pilocarpine (350 mg/kg), recording the time of administration, time of onset, severity of seizure;
Behavioral grading of epilepsy continuing status using the Racine scale:
Grade I: staring, mouth and facial movements;
Grade II: nodding, single jerks;
Grade III: unilateral/bilateral forelimb clonus
Grade V: loss of posture, jumping repeatedly, falling, tonic clonic seizure.

[3] = test system: fetal rat cortical neurons; test: Oxygen-glucose deprivation (OGD)-induced damage to neurons, MTT cell survival and LDH release; format: cell-based; settings: 3 h hypoxia (1% oxygen), then 4 h with EPO 5, 100 μg/ml or T3 5, 50, 100 μg/ml
Procedure: According to the methods from literatures, the fetal rat cortical neurons were cultured in the serum-free culture medium of Neurobasal® Medium (purchased from the market). After incubation in a 5% CO2 incubator for 7-14 days, the neurons were specifically labeled: microtubule-associated protein-2 (MAP-2) was stained and identified, and the nuclei were labeled with the fluorescent dye of 4, 6-diamidino-2-phenylindole (DAPI).
The fetal rat cortical neurons of primary culture were cultured in a sugar-free DMED culture medium. After being placed in the hypoxic incubator to damage neurons for 3 h, the culture medium were replaced with serum-free culture medium. EPO, the novel EPO-derived peptide (T3) and the culture medium were added to different groups respectively, and the groups were cultured in a 5% CO2 normal oxygen incubator for 4 h. Then the LDH release rate and MTT cell survival rate of each group were measured.
1. Selecting well-grown neurons cultured for 7-14 days, aspirating the old culture medium of neurons, washing 3 times with PBS buffer, and then adding sugar-free DMEM:
2. Placing the culture plates in an anoxic incubator at 37° C., and setting the oxygen concentration therein as 1%.
3. Removing the culture plates after 3 h of hypoxia, aspirating the sugar-free medium, replacing it with the original serum-free maintenance medium, adding EPO (5 μg/ml, 100 μg/ml), the EPO-derived peptide of the present invention (5 μg/ml, 50 μg/ml, 100 μg/ml), and the culture medium respectively, and placing in an 5% CO2 incubator with 95% air at 37° C. for 4 h.
4. After 4 h, measuring the cell survival rate (MTT kit, Beyotime Biotechnology Co., Ltd.) and LDH lactic dehydrogenase release rate (LDH kit, Promega Corporation) of the cells in each group.

[4] = test system: mouse model of transient middle cerebral artery occlusion; test: Mouse model of transient middle cerebral artery occlusion: neurobehavioral scores, cerebral infarction volume; format: in vivo, ICR mice; settings: for cerebral infarction volume versus control group / neurobehavioral scores versus control group: EPO 50 μg/kg, T3 500 μg/kg at reperfusion; for Neurobehavioral scores / Cerebral infarction volumes: third day after surgery; for Neurobehavioral scores: 60 min ischemia then reperfusion; for Cerebral infarction volumes: cresyl violet sections
Procedure: ICR mice (male, 25-30 g, 18 mice, purchased from Shanghai Slac Laboratory Animal Co., Ltd.) were divided into control group (ACN+Millq, 0.2 ml/mouse), EPO group (50 μg/kg), novel EPO-derived peptide group (T3, 500 μg/kg), 6 mice/group. Mice in each group were operated with suture-occluded method in mice to establish middle cerebral artery occlusion model, the mice were anesthetized by intraperitoneal injection of ketamine hydrochloride and fixed on the operating table. After 60 min of ischemia, the sutures were removed to reperfuse, and the solvents (ACN+Milliq), EPO, and T3 were administered separately. Neurobehavioral scores were measured on the third day after surgery, and then the mice were sacrificed to reperfuse and the brains were harvested to make sections stained with cresyl violet. The results were shown in FIG. 7A, FIG. 7B and FIG. 7C.
1. Disinfecting the neck, making an incision at the center of the neck, exposing the left common carotid artery with a microsurgical forceps under a stereo microscope, separating the internal carotid artery, external carotid artery and pterygopalatine artery, ligating the common carotid artery and internal carotid artery; making two knots on the external carotid artery with two filaments, wherein one at the distal part of the external carotid artery is a dead knot, and one at the proximal part of the external carotid artery is a slipknot;
2. Making a small incision on the external carotid artery with venus scissors, having about half the size of the blood vessel;
3. Cutting the external carotid artery, and carefully reversely inserting the suture from the external carotid artery into the bifurcation of the external carotid artery and internal carotid artery, then loosening the knot on the internal carotid artery, inserting the suture into the internal carotid artery until it encounters a slight resistance, that is, the origin of the middle cerebral artery, and putting the mouse back into the cage.
4. Anesthetizing and fixing again after 60 min of cerebral ischemia, and re-exposing the common carotid artery, internal carotid artery and suture parts under a stereo microscope;
5. Loosening the filament ligated to the proximal part of the external carotid artery for fixing the suture with the microsurgical forceps, slowly withdrawing the suture, and ligating the stump of the external carotid artery, loosening the filament ligated to the common carotid artery to achieve reperfusion;
6. Suturing the incision of the neck, disinfecting the area, and putting the mouse back in the cage for observation.

red blood cells = test: Hematopoietic experiment: red blood cell counts after daily intraperitoneal injection; format: in vivo, C57/BL6 mice; settings: for RBC generation (erythrocyte counts): tail vein blood; for red blood cell counts compared with the other groups (Saline, ACN+Milliq): as the number of administrations increases
Procedure: 18-22 g of male C57/BL6 mice (purchased from Shanghai SIPPR-BK Laboratory Animal Co., Ltd., 50 mice in total and 10 mice for each group) were used. The five groups were injected intraperitoneally with EPO (50 μg/kg), EPO-derived peptide of the present invention (50 μg/kg), EPO-derived peptide of the present invention (250 μg/kg), physiological saline (0.1 m/mouse), and solvent (ACN+Milliq, 0.1 m/mouse) once a day, respectively. On the 3th, 7th, and 13th days, the blood samples were collected from the tail vein and measured by a ProCyte Dx automatic blood cell analyzer to obtain the numbers of red blood cells thereof.

[5] = test system: fetal rat cortical neurons; test: NMDA-induced damage to neurons, MTT cell survival and LDH release; format: cell-based; settings: NMDA 250 μmol/L, 60 min; EPO 5 μg/ml, T3 100 μg/ml
Procedure: Based on the above results, the primary cortical neurons were administered with 250 μmol/L NMDA.
1. Selecting well-grown neurons cultured for 7-14 days, and adding EPO (5 μg/ml), the EPO-derived peptide of the present invention (100 μg/ml) respectively;
2. Adding NMDA to achieve a final concentration of 250 μmol/L, and culturing in an incubator at 37° C. for 60 min;
3. Discarding the culture medium, and measuring the cell survival rate (MTT kit, Beyotime Biotechnology Co., Ltd.) and LDH lactic dehydrogenase release rate (LDH kit, Promega Corporation) of the cells in each group.

[6] = 50 ug/kg i.p. once a day, 3th day
[7] = 50 ug/kg i.p. once a day, 7th day
[8] = 50 ug/kg i.p. once a day, 13th day

Molecule: CCC(NC(=O)C(CC(C)C)NC(=O)CNC(=O)C(CO)NC(=O)C(NC(=O)C(C)NC(=O)C(CC(=O)O)NC(=O)C(NC(=O)C(Cc1cnc[nH]1)NC(=O)C(CC(C)C)NC(=O)C(CCC(N)=O)NC(=O)C(CC(C)C)NC(=O)C1CCCN1C(=O)C(CO)NC(=O)C(CO)NC(=O)C(CC(N)=O)NC(=O)C(NC(=O)C(CC(C)C)NC(=O)C(CC(C)C)NC(=O)C(C)NC(=O)C(CCC(N)=O)NC(=O)CNC(=O)C(CCCNC(=N)N)NC(=O)C(CC(C)C)NC(=O)C(NC(=O)C(C)NC(=O)C(CCC(=O)O)NC(=O)C(CO)NC(=O)CCCCC1SCC2NC(=O)NC21)C(C)C)C(C)C)C(C)C)C(C)C)C(=O)NC(CO)C(=O)NC(CC(C)O)C(=O)NC(C(=O)NC(C(=O)NC(CC(C)C)C(=O)NC(CC(C)C)C(=O)NC(CCCNC(=N)N)C(=O)NC(C)C(=O)NC(CC(C)C)C(=O)O)C(C)O)C(C)O (stereo not drawn) [T3] (X1-SEAVLRGQALLVNSSPLQLHVDAVSGL[Abu]S[X2]TTLLRAL-OH; configuration not given here)
- blood-brain barrier penetration [1]: could enter the cerebrospinal fluid across the blood-brain barrier
- seizure latency [2]: 40.58 ± 3.67 min
- seizure latency versus saline and solvent groups [2]: longer than those of the physiological saline group and the solvent group
- loss of neurons in the hippocampus ([2]; animals with nerve damage (epilepsy model), summary statement): reduce the loss of neurons in the hippocampus
- LDH release rate versus control group [3]: lower than that in the control group
- cell survival rate (MTT) versus control group [3]: higher than that in the control group
- cerebral infarction volume versus control group [4]: lower than those of the control group
- neurobehavioral scores versus control group [4]: lower than those of the control group
- Neurobehavioral scores ([4]; column head: Ctrl + T3 group): 6.3 ± 0.7
- Cerebral infarction volumes ([4]; column head: ctrl + T3 group): 40.54 ± 5.78 mm^3
- Cerebral infarction volumes ([4]; column head:): 37.72 ± 9.20 mm^3
- Neurobehavioral scores ([4]; column head:): 5.7 ± 0.3
- RBC generation (erythrocyte counts) (red blood cells; [6]): 9.29 ± 0.13 M/μL
- RBC generation (erythrocyte counts) (red blood cells; [7]): 8.75 ± 0.36 M/μL
- RBC generation (erythrocyte counts) (red blood cells; [8]): 6.77 ± 0.18 M/μL
- RBC generation (erythrocyte counts) (red blood cells; 250 ug/kg i.p. once a day, 3th day): 8.16 ± 0.28 M/μL
- RBC generation (erythrocyte counts) (red blood cells; 250 ug/kg i.p. once a day, 7th day): 9.56 ± 0.54 M/μL
- RBC generation (erythrocyte counts) (red blood cells; 250 ug/kg i.p. once a day, 13th day): 6.52 ± 0.12 M/μL
- red blood cell counts compared with the other groups (Saline, ACN+Milliq) (red blood cells): no significant increase
- LDH release rate versus control group [5]: lower than that in the control group
- cell survival rate (MTT) versus control group [5]: higher than that in the control group

Molecule: Erythropoietin [EPO]
- seizure latency [2]: 41.16 ± 3.52 min
- seizure latency versus saline and solvent groups [2]: longer than those of the physiological saline group and the solvent group
- LDH release rate versus control group [3]: lower than that in the control group
- cell survival rate (MTT) versus control group [3]: higher than that in the control group
- cerebral infarction volume versus control group [4]: lower than those of the control group
- neurobehavioral scores versus control group [4]: lower than those of the control group
- RBC generation (erythrocyte counts) (red blood cells; [6]): 9.14 ± 0.56 M/μL
- RBC generation (erythrocyte counts) (red blood cells; [7]): 12.79 ± 0.24 M/μL
- RBC generation (erythrocyte counts) (red blood cells; [8]): 11.15 ± 0.23 M/μL
- red blood cell counts compared with the other groups (Saline, ACN+Milliq) (red blood cells): significantly higher than that of other groups
- LDH release rate versus control group [5]: lower than that in the control group
- cell survival rate (MTT) versus control group [5]: higher than that in the control group

Source: patent publication US11479592B2, “Erythropoietin-derived peptide, preparation method and use thereof” (Zhongshan Hospital, Fudan University, priority 2017, dated 2022)
